# Read-outs that look alike come from different tables or passages of the source. Ends that are not written are not given here.
# What was measured:
# HLA supertype alleles = assay type: binding, human
# [1] = test system: HLA-A*0201/K^b transgenic mice; assay: CTL response after DNA immunization, 51Cr release assay (lytic units); assay type: in vivo, mouse
# Description: However, the magnitude and the frequency of the responses varied greatly between epitopes.
# This assay to measure CTL activity is well known in the art. […] The LU calculation allows quantifying responses and thus readily comparing different experimental values.
# H2^bxd mice = assay: CTL response after peptide/IFA immunization, in situ ELISA; assay type: in vivo, mouse; conditions: peptide/IFA immunization of H2^bxd mice
# HLA-A*2402 = HLA-A*2402 (Homo sapiens, UniProt P04439, D101N/D140Y/D185E/E176V/E190D/F33S/G103R/G107R/I119L/I121M/I306V/K335N/L105A/L180Q/L300P/N151K/N90K/Q86E/Q94H/R106L/R138H/R89G/T104I/T345S/V100E/W191G/Y123F); assay: HLA class I peptide binding assay (purified HLA, IC50)
# [2] = A2, A3 or B7 supertype, five most common members
# [3] = A1 or A24 supertype, three related alleles
compound,measurement,setting,value
CC[C@H](C)[C@H](NC(=O)CNC(=O)[C@H](CC(C)C)NC(=O)[C@H](CO)NC(=O)[C@H](CC(C)C)NC(=O)[C@H](CC(C)C)NC(=O)[C@@H](N)Cc1ccccc1)C(=O)N[C@@H](Cc1c[nH]cn1)C(=O)N[C@@H](CC(C)C)C(=O)O [pol 562],XRN (number of supertype alleles bound ≦500 nM),HLA supertype alleles; [2],3
CC(C)C[C@H](NC(=O)[C@H](C)NC(=O)[C@H](CO)NC(=O)[C@@H]1CCCN1C(=O)[C@@H](NC(=O)[C@H](Cc1ccc(O)cc1)NC(=O)[C@@H](NC(=O)[C@H](Cc1ccccc1)NC(=O)[C@H](CO)NC(=O)[C@@H](NC(=O)CN)[C@@H](C)O)C(C)C)C(C)C)C(=O)N[C@@H](CC(N)=O)C(=O)N1CCC[C@H]1C(=O)N[C@@H](C)C(=O)N[C@@H](CC(=O)O)C(=O)O [pol 774],HIV-FT Immunogenicity magnitude,"[1]; 100 μg HIV-FT plasmid DNA i.m., CTL response to the epitope",0 LU
same,Frequency (fraction of independent cultures yielding positive responses),[1]; CTL response to the epitope after immunization with epigene construct HIV 1 (20 mer),0/8
same,HIV-FT Immunogenicity frequency (number cultures >2LU/total tested),[1]; HIV-FT DNA,0/8
same,HIV-FT Immunogenicity frequency of positive cultures,"[1]; HIV-FT DNA, positive = >2LU",0%
same,Frequency (fraction of independent cultures yielding positive responses),[1]; epigene construct HIV 1.1 (10 mer),0/4
LWFHISCLTF [core 101],Murine Immunogenicity (SU),H2^bxd mice,0.0 SU
same,XRN (number of supertype alleles bound ≦500 nM),HLA supertype alleles; [3],3
same,IC50,HLA-A*2402,0.0067 µM
C[C@H](N)C(=O)N[C@@H](CO)C(=O)N[C@@H](Cc1ccccc1)C(=O)N[C@@H](CS)C(=O)NCC(=O)N[C@@H](CO)C(=O)N1CCC[C@H]1C(=O)N[C@@H](Cc1ccc(O)cc1)C(=O)O [pol 166],XRN (number of supertype alleles bound ≦500 nM),HLA supertype alleles; [3],3
CC(C)C[C@H](NC(=O)[C@H](C)NC(=O)[C@H](CO)NC(=O)[C@H](C)NC(=O)[C@@H](NC(=O)[C@H](CC(=O)O)NC(=O)[C@H](CC(C)C)NC(=O)[C@H](CC(C)C)NC(=O)[C@@H](N)CC(=O)O)[C@@H](C)O)C(=O)N[C@@H](Cc1ccc(O)cc1)C(=O)O [core 419],XRN (number of supertype alleles bound ≦500 nM),HLA supertype alleles; [3],3
N[C@@H](CO)C(=O)N[C@@H](Cc1ccccc1)C(=O)N[C@@H](CS)C(=O)NCC(=O)N[C@@H](CO)C(=O)N1CCC[C@H]1C(=O)N[C@@H](Cc1ccc(O)cc1)C(=O)N[C@@H](CO)C(=O)N[C@@H](Cc1c[nH]c2ccccc12)C(=O)O [pol 167],XRN (number of supertype alleles bound ≦500 nM),HLA supertype alleles; [3],3
same,IC50,HLA-A*2402,0.146 µM
CC[C@H](C)[C@H](NC(=O)[C@@H]1CCCN1C(=O)[C@H](CC(C)C)NC(=O)[C@@H](N)CC(C)C)C(=O)N[C@@H](Cc1ccccc1)C(=O)N[C@@H](Cc1ccccc1)C(=O)N[C@@H](CS)C(=O)N[C@@H](CC(C)C)C(=O)N[C@@H](Cc1c[nH]c2ccccc12)C(=O)N[C@H](C(=O)O)C(C)C [env 378],XRN (number of supertype alleles bound ≦500 nM),HLA supertype alleles; [2],1
CSCC[C@H](NC(=O)[C@H](CC(C)C)NC(=O)[C@H](C)NC(=O)[C@@H]1CCCN1C(=O)[C@H](Cc1ccc(O)cc1)NC(=O)CN)C(=O)N1CCC[C@H]1C(=O)N[C@@H](CC(C)C)C(=O)N[C@@H](Cc1ccc(O)cc1)C(=O)O [pol 639],XRN (number of supertype alleles bound ≦500 nM),HLA supertype alleles; [3],2
same,IC50,HLA-A*2402,0.28 µM
CC(C)[C@H](NC(=O)CNC(=O)CNC(=O)[C@@H](NC(=O)[C@@H](NC(=O)[C@H](CCCNC(=N)N)NC(=O)[C@H](C)NC(=O)[C@@H]1CCCN1C(=O)[C@@H](N)[C@@H](C)O)C(C)C)[C@@H](C)O)C(=O)N[C@@H](Cc1ccccc1)C(=O)O [pol 354],XRN (number of supertype alleles bound ≦500 nM),HLA supertype alleles; [2],2
CC(C)C[C@H](NC(=O)[C@H](CC(N)=O)NC(=O)[C@@H]1CCCN1C(=O)[C@@H](NC(=O)[C@H](C)NC(=O)[C@H](Cc1ccccc1)NC(=O)[C@H](CCCCN)NC(=O)[C@@H]1CCCN1C(=O)[C@H](Cc1c[nH]c2ccccc12)NC(=O)[C@@H](N)CO)C(C)C)C(=O)O [pol 392],Murine Immunogenicity (SU),H2^bxd mice,261.0 SU
same,XRN (number of supertype alleles bound ≦500 nM),HLA supertype alleles; [3],2
CSCC[C@H](NC(=O)[C@H](CCSC)NC(=O)[C@@H](N)Cc1c[nH]c2ccccc12)C(=O)N[C@@H](Cc1c[nH]c2ccccc12)C(=O)N[C@@H](Cc1ccc(O)cc1)C(=O)N[C@@H](Cc1c[nH]c2ccccc12)C(=O)NCC(=O)N1CCC[C@H]1C(=O)N[C@@H](CO)C(=O)N[C@@H](CC(C)C)C(=O)N[C@@H](Cc1ccc(O)cc1)C(=O)O [env 359],XRN (number of supertype alleles bound ≦500 nM),HLA supertype alleles; [3],3
RFSWLSLLVPF [env 332],Murine Immunogenicity (SU),H2^bxd mice,0.0 SU
same,XRN (number of supertype alleles bound ≦500 nM),HLA supertype alleles; [3],2
same,IC50,HLA-A*2402,0.012 µM
CC[C@H](C)[C@H](NC(=O)[C@H](CS)NC(=O)[C@H](C)NC(=O)[C@H](Cc1ccc(O)cc1)NC(=O)[C@H](CC(C)C)NC(=O)[C@@H]1CCCN1C(=O)[C@H](CCSC)NC(=O)[C@H](CC(C)C)NC(=O)[C@H](C)N)C(=O)O [pol 642],XRN (number of supertype alleles bound ≦500 nM),HLA supertype alleles,4
CC(C)C[C@H](NC(=O)[C@H](CS)NC(=O)[C@H](Cc1c[nH]cn1)NC(=O)[C@@H]1CCCN1C(=O)[C@H](Cc1ccccc1)NC(=O)[C@H](C)N)C(=O)N[C@@H](C)C(=O)N[C@@H](Cc1ccccc1)C(=O)O [pol 529],XRN (number of supertype alleles bound ≦500 nM),HLA supertype alleles; [3],3
CC[C@H](C)[C@H](NC(=O)[C@@H](NC(=O)[C@H](Cc1ccccc1)NC(=O)[C@H](CCCNC(=N)N)NC(=O)[C@H](CCCNC(=N)N)NC(=O)[C@H](CC(C)C)NC(=O)[C@H](CS)NC(=O)[C@H](CCSC)NC(=O)[C@H](Cc1c[nH]c2ccccc12)NC(=O)[C@@H](N)CCCNC(=N)N)[C@@H](C)CC)C(=O)O [env 236],Murine Immunogenicity (SU),H2^bxd mice,339.6 SU
same,XRN (number of supertype alleles bound ≦500 nM),HLA supertype alleles; [3],3
CC(C)C[C@H](NC(=O)[C@H](CCCNC(=N)N)NC(=O)[C@H](C)NC(=O)[C@@H](NC(=O)[C@H](Cc1ccc(O)cc1)NC(=O)[C@H](CCCNC(=N)N)NC(=O)[C@H](CO)NC(=O)[C@H](CC(C)C)NC(=O)CN)C(C)C)C(=O)O [pol 455],XRN (number of supertype alleles bound ≦500 nM),HLA supertype alleles; [2],3
CC(C)C[C@H](NC(=O)[C@H](CO)NC(=O)[C@@H](N)CC(C)C)C(=O)N[C@@H](CC(=O)O)C(=O)N[C@H](C(=O)N[C@@H](CO)C(=O)N[C@@H](C)C(=O)N[C@@H](C)C(=O)N[C@@H](Cc1ccccc1)C(=O)N[C@@H](Cc1ccc(O)cc1)C(=O)O)C(C)C [pol 415],XRN (number of supertype alleles bound ≦500 nM),HLA supertype alleles; [3],3
